Assay results from US20240252586A1, “ENGINEERED ANTIMICROBIAL PEPTIDES AND USAGE THEREOF” (priority 2021, published 2024).
Where “and” joins values, the source holds several entries; their conditions need not be identical. Equal values may be shown once. Read-outs that look alike come from different tables or passages of the source. Where no end group is shown, it is not given here.

Key:
[1] = tested on: Enterobacterales; assay: Broth microdilution MIC, PJI isolates (Example 1); format: cell-based; conditions: RPMI; N = 22
Description: Imipenem, levofloxacin, tigecycline, linezolid, vancomycin, oxacillin, ceftazidime, colistin, and amikacin were tested as comparators. Testing was conducted in accordance with guidelines from the Clinical and Laboratory Standards Institute (CLSI; M7 and M100). Test organisms comprised reference strains from the American Type Culture Collection, the Centers for Disease Control Antibiotic Reference Bank and clinical isolates from the Micromyx repository.

[2] = tested on: E. Coli ATCC 25922
Description: (§1) SEQ ID NO: 1 stocks were made at 5.12 mg/mL in water adjusted to pH of 5.0 with 1% glacial acetic acid.
(§2) The test organisms (Table 7) consisted of clinical isolates from the Micromyx (MMX) repository, a reference isolate from the American Type Culture Collection (ATCC, Manassas, VA) and the Centers for Disease Control (CDC, Atlanta GA). Upon initial receipt, the isolates were streaked under suitable conditions onto agar medium appropriate to each organism. The organisms were incubated for 18-24 hr at 35° C. in ambient atmosphere. Colonies harvested from these growth plates were resuspended in the appropriate medium containing a cryoprotectant. Aliquots of each suspension were then stored frozen at −80° C. Prior to testing, all organisms were cultured onto trypticase soy agar containing 5% sheep blood. The agar plates were incubated as described above.
(§3) The Test media used for MIC and FIC were testing were cation-adjusted Mueller-Hinton broth (CAMHB) and Roswell Park Memorial Institute (RPMI-1640), buffered with 3-(N-morpholino)propanesulfonic acid (MOPS). Each test media was supplemented with 0.002% Tween-80 (P-80) prior to testing.
(§4) MIC assay plates were prepared for broth microdilution in accordance with guidelines from the Clinical and Laboratory Standards Institute (CLSI); automated liquid handlers (Biomek 3000 and Biomek FX) and multi-channel pipettes were used to conduct serial dilutions and liquid transfers. MIC assay plates were prepared using a 96-well, deep-well microdilution plate that mimicked the layout of the daughter plates.
(§5) For the mother plate, wells across the standard 96-well microdilution plate were filled with 150 μL of sterile saline 0.002% P-80 in columns 2 through 12. […] The Biomek 300 was used to make eleven 2-fold serial dilutions horizontally across each row of the plate from columns 2 through 11. The Biomek FX was then used to transfer 5 μL of the SEQ ID NO: 1 and saline 0.002% P-80 to the daughter plates.
(§6) A standardized inoculum of each organism was prepared per CLSI methods. Suspensions were prepared to equal a 0.5 McFarland standard followed by a 1:10 dilution into test medium. The inocula were dispensed into sterile reservoirs divided by length and the Biomek 3000 was used to inoculate the plates. Daughter plates were placed on the Biomek 3000 work surface in reverse orientation so that inoculation took place from low to high drug concentration. The Biomek 3000 delivered 10 μL of the diluted suspension into each well. These inoculations yielded a final cell concentration in the daughter plates of approximately 5×10^5 CFU/mL in each well. Plates were incubated at 35° C. for 16-20 hr. The microplates were viewed from the bottom using a plate viewer and the MIC was recorded as the lowest concentration of drug that inhibited visible growth of the organism.

[3] = tested on: E. Coli ATCC BAA-2469
Description: as §1, §2, §3, §4, §5, §6

[4] = tested on: E. Coli CDC 0451
Description: as §1, §2, §3, §4, §5, §6

[5] = tested on: P. aeruginosa ATCC 27853
Description: as §1, §2, §3, §4, §5, §6

[6] = tested on: P. aeruginosa CDC 0509
Description: as §1, §2, §3, §4, §5, §6

[7] = tested on: P. aeruginosa CDC 0515
Description: as §1, §2, §3, §4, §5, §6

[8] = tested on: S. aureus ATCC 29213
Description: as §1, §2, §3, §4, §5, §6

[9] = tested on: S. aureus NRS 382
Description: as §1, §2, §3, §4, §5, §6

[10] = tested on: S. aureus NRS 384
Description: as §1, §2, §3, §4, §5, §6

[11] = tested on: S. epidermidis MMX 5129
Description: as §1, §2, §3, §4, §5, §6

[12] = tested on: S. epidermidis MMX 8655
Description: as §1, §2, §3, §4, §5, §6

[13] = tested on: Escherichia coli ATCC 25922; assay: Broth microdilution MIC, QC of stock (Study 2); format: cell-based
Description: (§7) The activity of SEQ ID NO: 1 stocks against relevant ATCC reference isolates was determined by broth microdilution for QC purposes in accordance with guidelines described by the Clinical and Laboratory Standards Institute.
(§8) The wells in columns 2-12 in a standard 96-well microdilution plate were filled with 150 μL of 0.002% P-80 PBS. […] Serial two-fold dilutions were conducted through column 11. The wells of column 12 contained no drug and served as the organism growth control well. This would become the “mother” plate from which “daughter” or test plates would be prepared. The daughter plates were loaded with 190 μL of CAMHB+0.002% polysorbate-80 (P-80), or RPMI with 0.002% P-80 by hand-pipetting.
(§9) A standardized inoculum of each evaluated organism was prepared per CLSI methods. Growth from agar plates was used to prepare a 0.5 McFarland suspension in saline for each organism. The 0.5 McFarland suspensions were diluted 1:20 in saline, and the diluted suspensions were used as the test inocula. The inocula were then transferred to daughter plates by delivering 10 μL of standardized inoculum into each well of the daughter plate, resulting in a final concentration ranging between 2.5×10^5 to 5×10^5 CFU/mL per well.
(§10) Plates were stacked and covered with a lid on the top plate, placed into plastic bags, and incubated at 35° C. for 16-20 hr in ambient air. Growth in the microplates was viewed from the bottom using a plate viewer. […] The MIC was read and recorded as the lowest concentration of drug (SEQ ID NO: 1) that inhibited visible growth of the organism.

[14] = tested on: Pseudomonas aeruginosa ATCC 27853; assay: Broth microdilution MIC, QC of stock (Study 2); format: cell-based
Description: as §7, §8, §9, §10

[15] = tested on: Staphylococcus aureus ATCC 29213; assay: Broth microdilution MIC, QC of stock (Study 2); format: cell-based
Description: as §7, §8, §9, §10

RRWVRRVRRVWRRVVRVVRRWVRR [SEQ ID NO: 1]
0.12 µg/mL: MIC ([11]; RPMI) | MIC ([12]; RPMI) | MIC ([15]; RPMI + 0.002% P-80)
1 µg/mL: MIC ([7]; RPMI) | MIC ([11]; CAMHB) | MIC ([12]; stated in FIG. 3 legends (time-kill))
2 µg/mL: MIC ([5]; RPMI) | MIC ([13]; CAMHB + 0.002% P-80)
16 µg/mL: MIC ([6]; stated in FIG. 5 legends (time-kill), printed P. Aeruginosa CDC 0451)
4 µg/mL: MIC ([2]; CAMHB) | MIC ([3]; CAMHB) | MIC ([6]; RPMI) | MIC ([8]; CAMHB) | MIC ([10]; CAMHB) | MIC ([14]; CAMHB + 0.002% P-80) | MIC ([15]; CAMHB + 0.002% P-80)
1 µg/mL and 2 µg/mL: MIC ([4]; CAMHB)
0.5 µg/mL: MIC50 [1] | MIC90 [1] | MIC ([2]; RPMI) | MIC ([3]; RPMI) | MIC ([4]; RPMI) | MIC ([8]; RPMI) | MIC ([9]; RPMI) | MIC ([10]; RPMI) | MIC ([12]; CAMHB) | MIC ([13]; RPMI + 0.002% P-80) | MIC ([14]; RPMI + 0.002% P-80)
8 µg/mL: MIC ([5]; CAMHB) | MIC ([6]; CAMHB) | MIC ([7]; CAMHB) | MIC ([9]; stated in FIG. 2 legends (time-kill), printed S. aureus NRS 382)
